Assays:
[1] = molecular target: T1, FPR1 (Homo sapiens, UniProt P21462); type: cell-based
T1 construct: expressed in transfected cells; host or cells: HEK293T
T1 sequence (P21462 1-350): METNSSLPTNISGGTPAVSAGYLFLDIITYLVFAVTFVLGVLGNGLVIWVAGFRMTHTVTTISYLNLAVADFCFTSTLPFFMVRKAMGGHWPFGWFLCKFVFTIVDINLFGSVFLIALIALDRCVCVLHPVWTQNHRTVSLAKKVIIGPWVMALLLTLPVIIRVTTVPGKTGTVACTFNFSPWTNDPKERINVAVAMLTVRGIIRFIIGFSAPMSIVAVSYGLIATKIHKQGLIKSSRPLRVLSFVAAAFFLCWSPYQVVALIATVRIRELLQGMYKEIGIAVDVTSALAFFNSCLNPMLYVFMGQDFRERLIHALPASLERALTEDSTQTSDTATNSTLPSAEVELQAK

[2] = system: human polymorphonuclear granulocytes (PMN; neutrophils); type: cell-based
[3] = system: FPR1, FPR2, FPR3, PMN; type: cell-based, human

GCLIGAEYVNNSYEC [Omicron Variant SCoV2_52, 15mer of Omicron spike pool library]
significant FPR1 activators (group of the spike peptide pool screening) [1]: significant FPR1 activators | FPR1 calcium activation in library screening ([1]; individual peptides 10 μM, n = 3): activator | significant PMN activators (group of the spike peptide pool screening) ([2]; SARS-CoV-2 omicron B.1.1.529 spike pool peptides, 10 µM, PMN, n=6): significant PMN activators | neutrophil calcium mobilization in library screening ([2]; individual peptides 10 μM, n = 6): activator | Match with activator (region): Receptor [3]: PMN + FPR1

Source: PMC12284294 (iScience, 2025)
